# Results from patent US8026245B2, “HIV replication inhibiting purine derivatives” (Janssen Pharmaceutica N.V., priority 2003, dated 2011).
# What was measured:
# mock-infected MT-4 cells = assay: Method B: cytotoxicity in mock-infected MT-4 cells engineered with GFP under a constitutional promotor; assay type: cell-based
# Description: (§1) In these cells, engineered with GFP (and an HIV-specific promotor), ongoing HIV-infection was measured fluorometrically. Cytotoxicity is measured in the same cells, but engineered with GFP under a constitutional promotor. The infection (or inhibition thereof) of HIV infected cells and the fluorescence of mock-infected cells is assessed by the fluorescent GFP signal generated by the two above mentioned cell lines.
# (§2) The 50% cytotoxic concentration (CC50 in μM) was defined as the concentration of compound that reduced fluorescence of the mock-infected cells by 50%.
# HIV-1 [1] = details: for pSI (pEC50 − pCC50): Method B, selectivity index, ratio of CC50 to EC50
# [2] = Method B: cytotoxicity in mock-infected MT-4 cells engineered with GFP under a constitutional promotor; assay type: cell-based; details: human; Method B; mock-infected MT-4 cells with GFP, fluorescence reduced by 50%; read-out: pCC50 (−logCC50) (converted)
# Description: as §1, §2
# HIV-1 [3] = assay: microbe, parasite or virus in culture; details: Human immunodeficiency virus 1, MT4, read-out: pEC50 (−logEC50) (converted)
SMILES,pCC50 (−logCC50) (mock-infected MT-4 cells),pEC50 (−logEC50) (HIV-1 [1]),pSI (pEC50 − pCC50) (HIV-1 [1]),CC50 [2],EC50 (HIV-1 [3])
Cc1cc(CCC#N)cc(C)c1Nc1nc(Nc2ccc(C#N)cc2)nc2[nH]cnc12 [Compound 32],4.8,8.3,−3.5,,
COc1cc(/C=C/C#N)cc(C)c1Nc1nc(Nc2ccc(C#N)cc2)nc2[nH]cnc12 [Compound 6],,,−2.9,794 nM,1 nM
CCN(C)C(=O)/C=C/c1cc(C)c(Oc2nc(Nc3ccc(C#N)cc3)nc3ncn(Cc4ccc(OC)cc4)c23)c(C)c1 [Compound 1],,,<−3.8,> 25100 nM,3.98 nM
CC(C#N)=Cc1cc(C)c(Nc2nc(Nc3ccc(C#N)cc3)nc3[nH]cnc23)c(C)c1 [Compound 62],<4.6,8.6,>4.0,,
CC(=CC#N)c1cc(C)c(Nc2nc(Nc3ccc(C#N)cc3)nc3[nH]cnc23)c(C)c1 [Compound 56],<4.6,8.4,>3.8,,
CCN(C)C(=O)/C=C/c1cc(C)c(Oc2nc(Nc3ccc(C#N)cc3)nc3nc[nH]c23)c(C)c1 [Compound 5],,,−3.2,5010 nM,3.16 nM
CCOc1cc(C)c(Nc2nc(Nc3ccc(C#N)cc3)nc3[nH]cnc23)c(C)c1 [Compound 30],4.8,8.8,−4.0,,
Cc1cc(OCC#N)cc(C)c1Nc1nc(Nc2ccc(C#N)cc2)nc2[nH]cnc12 [Compound 31],<4.6,9.3,<−4.7,,
COc1ccc(Cn2cnc3c(Nc4c(C)cc(/C=C/C#N)cc4OC)nc(Nc4ccc(C#N)cc4)nc32)cc1 [Compound 2],,,−3.7,5010 nM,1 nM
COc1cc(/C=C/C#N)cc(OC)c1Oc1nc(Nc2ccc(C#N)cc2)nc2[nH]cnc12 [Compound 35],4.9,8.4,−3.5,,
COc1cc(/C=C/C#N)cc(C)c1Nc1nc(Nc2ccc(C#N)cc2)nc2c1ncn2C(C)C [Compound 49],5.5,9.0,3.5,,
Cc1cc(/C=C/C#N)cc(C)c1Oc1nc(Nc2ccc(C#N)cc2)nc2[nH]cnc12 [Compound 33],5.0,8.5,−3.5,,
C/C(=C\C#N)c1cc(C)c(Nc2nc(Nc3ccc(C#N)cc3)nc3c2ncn3C)c(C)c1 [Compound 57],,,>4.4,> 25100 nM,1 nM
CC(C#N)=Cc1cc(C)c(Nc2nc(Nc3ccc(C#N)cc3)nc3c2ncn3C)c(C)c1 [Compound 64],<4.6,9.3,>4.7,,
COc1ccc(Cn2cnc3nc(Nc4ccc(C#N)cc4)nc(Oc4c(C)cc(/C=C/C#N)cc4C)c32)cc1 [Compound 4],,,−3.4,10000 nM,3.98 nM
Cc1cc(/C=C/C#N)cc(C)c1Nc1nc(Nc2ccc(C#N)cc2)nc2[nH]cnc12 [Compound 34],4.8,8.5,−3.7,,
COc1cc(C=C(C)C#N)cc(C)c1Nc1nc(Nc2ccc(C#N)cc2)nc2[nH]cnc12 [Compound 63],5.1,8.4,3.3,,
N#C/C=C/c1cc(Cl)c(Nc2nc(Nc3ccc(C#N)cc3)nc3[nH]cnc23)c(Cl)c1 [Compound 55],5.6,8.6,3.0,,

SMILES,pCC50 (−logCC50) (mock-infected MT-4 cells),pEC50 (−logEC50) (HIV-1 [1]),pSI (pEC50 − pCC50) (HIV-1 [1]),CC50 [2],EC50 (HIV-1 [3])
Cc1cc(/C=C/C#N)cc(Cl)c1Nc1nc(Nc2ccc(C#N)cc2)nc2[nH]cnc12 [Compound 54],5.5,8.7,3.2,,
COc1cc(/C=C/C#N)cc(Cl)c1Nc1nc(Nc2ccc(C#N)cc2)nc2[nH]cnc12 [Compound 53],6.1,8.7,2.6,,
CCC(=CC#N)c1cc(C)c(Nc2nc(Nc3ccc(C#N)cc3)nc3c2ncn3CC#N)c(C)c1 [Compound 60],5.0,8.6,3.6,,
COc1cc(OC)c(Nc2nc(Nc3ccc(C#N)cc3)nc3[nH]cnc23)c(OC)c1 [Compound 26],5.0,9.3,−4.3,,
C/C(C#N)=C(/C)c1cc(C)c(Nc2nc(Nc3ccc(C#N)cc3)nc3[nH]cnc23)c(C)c1 [Compound 65],5.0,8.1,3.1,,
COc1ccc(Cn2cnc3nc(Nc4ccc(C#N)cc4)nc(Oc4c(C)cc(/C=C/C(=O)N(C)C)cc4C)c32)cc1 [Compound 21],4.8,8.4,−3.6,,
CCC(=CC#N)c1cc(C)c(Nc2nc(Nc3ccc(C#N)cc3)nc3[nH]cnc23)c(C)c1 [Compound 58],5.1,8.3,3.2,,
COc1ccc(Cn2cnc3c(Nc4c(C)cc(/C=C/C#N)cc4Cl)nc(Nc4ccc(C#N)cc4)nc32)cc1 [Compound 14],5.5,8.3,−2.8,,
Cc1cc(C#N)cc(C)c1Nc1nc(Nc2ccc(C#N)cc2)nc2c1ncn2C [Compound 46],<4.6,9.4,>4.8,,
Cc1cc(C)c(Nc2nc(Nc3ccc(C#N)cc3)nc3c2ncn3C)c(C)c1 [Compound 45],<4.6,9.2,>4.6,,
Cc1cc(/C=C/C(=O)N(C)C)cc(C)c1Nc1nc(Nc2ccc(C#N)cc2)nc2[nH]cnc12 [Compound 37],5.4,8.1,−2.7,,
COc1ccc(Cn2cnc3nc(Nc4ccc(C#N)cc4)nc(Oc4c(C)cc(/C=C/C(N)=O)cc4C)c32)cc1 [Compound 20],5.2,8.4,−3.2,,
Cc1cc(/C=C/C#N)cc(C)c1Nc1nc(Nc2ccc(C#N)cc2)nc2ncn(C)c12 [Compound 44],4.7,,3.3,,
CCC(=CC#N)c1cc(C)c(Nc2nc(Nc3ccc(C#N)cc3)nc3c2ncn3C)c(C)c1 [Compound 59],<4.6,8.5,>3.9,,
COc1ccc(Cn2cnc3nc(Nc4ccc(C#N)cc4)nc(Oc4c(OC)cc(/C=C/C#N)cc4OC)c32)cc1 [Compound 19],<4.6,9.2,<−4.6,,
Cc1cc(C#N)cc(C)c1Nc1nc(Nc2ccc(C#N)cc2)nc2[nH]cnc12 [Compound 29],4.9,8.7,−3.8,,
COc1ccc(Cn2cnc3c(Nc4c(C)cc(CCC#N)cc4C)nc(Nc4ccc(C#N)cc4)nc32)cc1 [Compound 13],5.2,8.2,−3.1,,
COc1cc(/C=C/C#N)cc(C)c1Nc1nc(Nc2ccc(C#N)cc2)nc2c1ncn2CCO [Compound 50],5.8,9.2,3.4,,
